# Data as given in PubChem BioAssay AID1963968 (Molecular Pharmacology Branch, DTP, NCI, 2024).
# Tested on: 945468-187-T-J3-PDC spheroids with HUVEC/MSC, viability
# Assay: Anticancer human tumor 945468-187-T-J3-PDC patient-derived rectal carcinoma cell line growth inhibition [PI3K]
# Conditions: for IC50: curve of first compound; for viability, T/C: stronger effect = lower value
# Text: Combinatorial screen of targeted agents with the PI3K inhibitors inavolisib, alpelisib, duvelisib, and copanlisib in multi-cell type tumor spheroids
# A high-throughput screen of multi-cell type tumor spheroids was designed to identify active combinations of targeted small molecules and PI3K pathway inhibitors. Complex spheroids include a stromal component modeled by human endothelial cells (HUVEC) and fibroblasts modeled by human mesenchymal stem cells (MSCs). The concentration ranges selected for each drug and investigational agent were based upon clinically achievable concentrations if the clinical Cmax of the agent was known.
# Compounds. The drugs and investigational agents: inavolisib (NSC800729), alpelisib (NSC765974), duvelisib (NSC772469), copanlisib (NSC816437), ipatasertib (NSC767898), afuresertib (NSC778305), talazoparib (NSC767125), sapanisertib (NSC764658), selumetinib (NSC741078), tovorafenib (DAY101, NSC766906), vemurafenib (NSC761431), ravoxertinib (NSC781343), sotorasib (NSC818433), MRTX1133 (NSC 836407), abemaciclib (NSC 768073), palbociclib (NSC758247), venetoclax (NSC 766270), SY5609 (NSC837396), enzalutamide (NSC755605), and darolutamide (NSC825331), were obtained from the National Cancer Institute (NCI) Developmental Therapeutics Program Chemical Repository. The FDA-approved anticancer drug set is available from the NCI Developmental Therapeutics Program. […] The stock solutions were prepared in dimethyl sulfoxide (DMSO, Sigma-Aldrich, St. Louis, MO, cat. D2650) at 800-fold the tested concentration and stored at -70 degrees C prior to their use. All drugs and investigational agents were tested over a range starting from a high concentration at or near the clinical Cmax and decreasing in half-log increments. If the clinical Cmax for an agent had not been determined, the highest concentration tested was 10 microM.
# Cell Culture. All cells were maintained in an incubator at 37 degrees C and 5% CO2 with 95% humidity. The PDC lines were cultured according to standard operating procedures established by the NCI PDMR (https://pdmr.cancer.gov/sops/default.htm). All PDCs were thawed and cultured in Matrigel-coated flasks prepared with a working solution of 1X Ham's F-12 nutrient mix, without supplementation (Invitrogen, Waltham, MA, cat. 11765054), 100 U/mL penicillin-streptomycin (Invitrogen, cat. 15140122), and 2.5% Matrigel (Corning Inc., Corning, NY, cat. 354248) for the first three passages. The 354836-022-R-J1-PDC, 475296-252-R-J1-PDC, and 997726-040-R-J2-PDC lines were cultured in 6A media, which includes advanced DMEM/F-12 (Thermo Fisher Scientific, cat. 12634028), 10 mM HEPES (Thermo Fisher Scientific, cat. 15630080), 1X GlutaMAX supplement (Thermo Fisher Scientific, cat. 35050061), 0.1 mg/mL primocin (InvivoGen, San Diego, CA, cat. ant-pm-2), 10% defined fetal bovine serum, heat inactivated (HyClone Laboratories Inc., Logan, UT, cat. SH30070.03HI), 50% L-WRN conditioned media (ATCC, cat. CRL-3276), 1.25 mM N-Acetyl-L-cysteine (Sigma-Aldrich, cat. A9165), 10 mM nicotinamide (Sigma-Aldrich, cat. N0636), 1X B-27 supplement (Thermo Fisher Scientific, cat. 17504044), 1X N-2 supplement (Thermo Fisher Scientific, cat. 17502048), and 10 microM Y-27632 dihydrochloride (Tocris Bioscience, Bristol, United Kingdom, cat. 1254). The 624824-186-R-J2-PDC line was cultured in 6C/Colon 1B media, which includes all 6A media components plus 50 ng/mL human EGF recombinant protein (Thermo Fisher Scientific, cat. PHG0311). […]
# 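Further: spheroids exposed to agents for 7 days before viability read.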
# 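Wherever viability, T/C is given: 100% = DMSO vehicle control viability.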
compound,measurement,setting,value
CC(=O)c1c(C)c2cnc(Nc3ccc(N4CCNCC4)cn3)nc2n(C2CCCC2)c1=O + CC(Nc1ccc2c(c1)OCCn1cc(N3C(=O)OCC3C(F)F)nc1-2)C(N)=O,IC50,second compound 0.00316 µM,> 100 nM
same,IC50,second compound 0.01 µM,> 100 nM
same,IC50,second compound 0.0316 µM,> 100 nM
same,IC50,second compound 0.1 µM,> 100 nM
same,IC50,second compound 0.316 µM,> 100 nM
same,IC50,second compound 1 µM,77.5 nM
same,"viability, T/C","second compound 0.00316 µM, first compound 0.000316 µM",90.5%
same,"viability, T/C","second compound 0.00316 µM, first compound 0.001 µM",100%
same,"viability, T/C","second compound 0.00316 µM, first compound 0.00316 µM",94.9%
same,"viability, T/C","second compound 0.00316 µM, first compound 0.01 µM",99.2%
same,"viability, T/C","second compound 0.00316 µM, first compound 0.0316 µM",108%
same,"viability, T/C","second compound 0.00316 µM, first compound 0.1 µM",110%
same,"viability, T/C","second compound 0.01 µM, first compound 0.000316 µM",97.6%
same,"viability, T/C","second compound 0.01 µM, first compound 0.001 µM",104%
same,"viability, T/C","second compound 0.01 µM, first compound 0.00316 µM",101%
same,"viability, T/C","second compound 0.01 µM, first compound 0.01 µM",110%
same,"viability, T/C","second compound 0.01 µM, first compound 0.0316 µM",109%
same,"viability, T/C","second compound 0.01 µM, first compound 0.1 µM",103%
same,"viability, T/C","second compound 0.0316 µM, first compound 0.000316 µM",108%
same,"viability, T/C","second compound 0.0316 µM, first compound 0.001 µM",104%
same,"viability, T/C","second compound 0.0316 µM, first compound 0.00316 µM",92.8%
same,"viability, T/C","second compound 0.0316 µM, first compound 0.01 µM",116%
same,"viability, T/C","second compound 0.0316 µM, first compound 0.0316 µM",101%
same,"viability, T/C","second compound 0.0316 µM, first compound 0.1 µM",123%
same,"viability, T/C","second compound 0.1 µM, first compound 0.000316 µM",110%
same,"viability, T/C","second compound 0.1 µM, first compound 0.001 µM",111%
same,"viability, T/C","second compound 0.1 µM, first compound 0.00316 µM",104%
same,"viability, T/C","second compound 0.1 µM, first compound 0.01 µM",118%
same,"viability, T/C","second compound 0.1 µM, first compound 0.0316 µM",115%
same,"viability, T/C","second compound 0.1 µM, first compound 0.1 µM",119%
same,"viability, T/C","second compound 0.316 µM, first compound 0.000316 µM",118%
same,"viability, T/C","second compound 0.316 µM, first compound 0.001 µM",100%
same,"viability, T/C","second compound 0.316 µM, first compound 0.00316 µM",90.1%
same,"viability, T/C","second compound 0.316 µM, first compound 0.01 µM",101%
same,"viability, T/C","second compound 0.316 µM, first compound 0.0316 µM",104%
same,"viability, T/C","second compound 0.316 µM, first compound 0.1 µM",81.5%
same,"viability, T/C","second compound 1 µM, first compound 0.000316 µM",83.1%
same,"viability, T/C","second compound 1 µM, first compound 0.001 µM",67.9%
same,"viability, T/C","second compound 1 µM, first compound 0.00316 µM",64.7%
same,"viability, T/C","second compound 1 µM, first compound 0.01 µM",80.6%
same,"viability, T/C","second compound 1 µM, first compound 0.0316 µM",74.8%
same,"viability, T/C","second compound 1 µM, first compound 0.1 µM",43.2%
